The record followed here is ChEMBL document CHEMBL2057090, “Discovery of novel PI3Kγ/δ inhibitors as potential agents for inflammation” (Bioorg Med Chem Lett, 2012).

As a reminder, the IC50 is the concentration that inhibits the measured activity by half. A word on the efflux ratio: it is a quotient of directional permeabilities that is used to spot active efflux. In general, Papp A→B refers to the apparent permeability from the apical to the basolateral side of a cell layer. Usually clearance stands for the volume of plasma or blood freed of the substance per unit of time.

SMILES strings stand for the structures. ≈ marks a conversion by molar mass, not a printed value.

The target of series [1] is T1, Phosphatidylinositol 4,5-bisphosphate 3-kinase catalytic subunit delta isoform (Homo sapiens, UniProt O00329).
T1 sequence (O00329 whole entry): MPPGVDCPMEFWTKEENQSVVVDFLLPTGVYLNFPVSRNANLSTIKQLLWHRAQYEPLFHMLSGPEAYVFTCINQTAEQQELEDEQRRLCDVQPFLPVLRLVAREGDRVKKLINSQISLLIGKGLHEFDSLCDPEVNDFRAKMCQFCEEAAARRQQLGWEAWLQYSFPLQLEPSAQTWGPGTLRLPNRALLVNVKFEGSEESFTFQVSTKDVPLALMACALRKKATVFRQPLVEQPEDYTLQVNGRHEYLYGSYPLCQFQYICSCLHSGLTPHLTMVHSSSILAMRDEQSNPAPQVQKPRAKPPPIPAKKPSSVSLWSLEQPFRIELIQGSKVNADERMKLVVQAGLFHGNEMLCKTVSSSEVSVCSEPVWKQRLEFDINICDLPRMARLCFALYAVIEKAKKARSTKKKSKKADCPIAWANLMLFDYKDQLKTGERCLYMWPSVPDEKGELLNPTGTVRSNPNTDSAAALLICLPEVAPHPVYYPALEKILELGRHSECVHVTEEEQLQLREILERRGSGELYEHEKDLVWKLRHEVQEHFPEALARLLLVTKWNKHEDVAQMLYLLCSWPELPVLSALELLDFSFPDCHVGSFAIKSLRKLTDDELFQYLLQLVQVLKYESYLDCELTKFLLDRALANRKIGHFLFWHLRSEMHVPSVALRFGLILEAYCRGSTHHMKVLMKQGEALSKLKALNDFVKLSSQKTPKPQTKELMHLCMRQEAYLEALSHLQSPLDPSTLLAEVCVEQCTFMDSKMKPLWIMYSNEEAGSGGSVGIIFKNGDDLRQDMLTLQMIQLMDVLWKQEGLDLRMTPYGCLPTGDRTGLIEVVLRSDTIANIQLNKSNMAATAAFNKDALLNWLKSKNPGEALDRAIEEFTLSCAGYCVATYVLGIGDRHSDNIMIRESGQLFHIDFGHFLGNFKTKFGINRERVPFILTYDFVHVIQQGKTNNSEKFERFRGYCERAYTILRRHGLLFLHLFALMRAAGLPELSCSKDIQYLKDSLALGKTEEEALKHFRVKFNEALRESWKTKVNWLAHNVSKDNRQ
Nature of the series: Inhibition of PI3Kdelta in human HL60 cell lysate by kinobead assay.

The target in series [2] is Phosphatidylinositol 4,5-bisphosphate 3-kinase catalytic subunit beta isoform (Homo sapiens, UniProt P42338). Briefly: Inhibition of PI3Kbeta in human HL60 cell lysate by kinobead assay. The class given is cell-free, HL-60.
Chain of Phosphatidylinositol 4,5-bisphosphate 3-kinase catalytic subunit beta isoform (P42338 whole entry, canonical isoform): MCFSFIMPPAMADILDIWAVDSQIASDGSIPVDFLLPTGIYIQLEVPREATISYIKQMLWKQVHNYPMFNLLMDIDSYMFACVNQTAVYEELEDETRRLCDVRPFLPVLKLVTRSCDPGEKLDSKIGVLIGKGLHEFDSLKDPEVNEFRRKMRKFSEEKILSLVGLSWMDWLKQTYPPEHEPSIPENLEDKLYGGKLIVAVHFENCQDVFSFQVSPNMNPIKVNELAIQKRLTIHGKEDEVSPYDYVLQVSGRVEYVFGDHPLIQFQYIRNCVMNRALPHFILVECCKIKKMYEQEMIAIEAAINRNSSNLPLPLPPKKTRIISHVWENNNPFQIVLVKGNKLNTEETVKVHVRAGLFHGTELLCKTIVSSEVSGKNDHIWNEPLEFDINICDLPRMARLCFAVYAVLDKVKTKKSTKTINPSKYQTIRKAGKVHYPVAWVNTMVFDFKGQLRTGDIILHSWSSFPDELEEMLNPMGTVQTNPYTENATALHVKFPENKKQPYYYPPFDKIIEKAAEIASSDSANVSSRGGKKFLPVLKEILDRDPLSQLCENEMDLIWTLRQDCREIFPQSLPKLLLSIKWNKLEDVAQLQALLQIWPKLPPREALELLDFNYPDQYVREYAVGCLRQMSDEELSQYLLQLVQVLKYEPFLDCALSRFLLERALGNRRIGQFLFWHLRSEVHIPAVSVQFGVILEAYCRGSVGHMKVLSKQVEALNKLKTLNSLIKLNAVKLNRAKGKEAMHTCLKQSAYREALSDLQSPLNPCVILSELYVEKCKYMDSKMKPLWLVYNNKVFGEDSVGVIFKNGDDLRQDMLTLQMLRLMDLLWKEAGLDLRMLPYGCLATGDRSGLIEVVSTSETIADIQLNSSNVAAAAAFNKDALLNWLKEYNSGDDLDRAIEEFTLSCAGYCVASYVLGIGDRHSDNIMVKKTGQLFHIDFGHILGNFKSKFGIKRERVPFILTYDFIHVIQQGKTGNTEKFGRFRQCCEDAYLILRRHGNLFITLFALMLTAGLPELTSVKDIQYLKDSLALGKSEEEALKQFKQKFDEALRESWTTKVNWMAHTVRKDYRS
The target of series [3] is Phosphatidylinositol 4,5-bisphosphate 3-kinase catalytic subunit alpha isoform (Homo sapiens, UniProt P42336). Nature of the series: Inhibition of PI3Kalpha in human HL60 cell lysate by kinobead assay.
Chain of Phosphatidylinositol 4,5-bisphosphate 3-kinase catalytic subunit alpha isoform (P42336 whole entry, canonical isoform): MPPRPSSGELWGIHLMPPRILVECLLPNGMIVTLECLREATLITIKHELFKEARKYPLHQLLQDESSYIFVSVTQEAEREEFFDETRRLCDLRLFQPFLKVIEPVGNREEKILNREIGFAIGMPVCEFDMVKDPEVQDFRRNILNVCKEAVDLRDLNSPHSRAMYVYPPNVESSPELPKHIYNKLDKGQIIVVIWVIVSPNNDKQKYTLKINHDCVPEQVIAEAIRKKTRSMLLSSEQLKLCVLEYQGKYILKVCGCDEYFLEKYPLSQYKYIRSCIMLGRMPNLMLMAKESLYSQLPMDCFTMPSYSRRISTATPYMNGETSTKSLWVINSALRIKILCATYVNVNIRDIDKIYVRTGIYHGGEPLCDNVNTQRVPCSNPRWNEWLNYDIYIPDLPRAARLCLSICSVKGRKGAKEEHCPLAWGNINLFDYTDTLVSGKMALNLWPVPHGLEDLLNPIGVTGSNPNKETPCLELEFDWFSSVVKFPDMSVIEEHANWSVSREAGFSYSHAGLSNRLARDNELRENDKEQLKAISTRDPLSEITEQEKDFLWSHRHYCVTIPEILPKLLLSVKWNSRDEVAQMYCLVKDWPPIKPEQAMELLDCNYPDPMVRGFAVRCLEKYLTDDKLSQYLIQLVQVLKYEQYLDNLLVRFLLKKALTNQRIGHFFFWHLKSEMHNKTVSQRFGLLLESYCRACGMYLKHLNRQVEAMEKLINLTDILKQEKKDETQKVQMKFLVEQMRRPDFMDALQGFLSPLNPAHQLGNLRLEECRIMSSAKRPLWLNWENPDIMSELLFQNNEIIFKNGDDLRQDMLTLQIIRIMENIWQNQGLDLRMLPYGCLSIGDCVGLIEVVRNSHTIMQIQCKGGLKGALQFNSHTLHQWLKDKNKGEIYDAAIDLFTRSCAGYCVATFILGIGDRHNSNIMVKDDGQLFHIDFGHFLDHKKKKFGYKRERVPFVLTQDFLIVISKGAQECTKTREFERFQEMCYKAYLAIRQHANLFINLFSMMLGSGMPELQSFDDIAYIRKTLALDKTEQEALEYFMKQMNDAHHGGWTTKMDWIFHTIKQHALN
Series [4] has as its target Phosphatidylinositol 4,5-bisphosphate 3-kinase catalytic subunit gamma isoform (Homo sapiens, UniProt P48736). Briefly: Inhibition of PI3Kgamma in human HL60 cell lysate by kinobead assay.
In series [5] the test system is Liver microsomes. Nature of the series: Intrinsic clearance in human liver microsomes assessed per g of liver. The class given is ADME, Microsome.
Series [6] is described as follows: Efflux ratio of apparent permeability across human Caco2 cells. The format is ADME, cell-based. As to conditions: Caco-2. (Passage across Caco-2 layers is used to estimate intestinal permeability.)
Series [7] is described as follows: Antiinflammatory activity in human neutrophils assessed as inhibition of fMLP-induced migration. The format is functional, cell-based. The note with it: Neutrophil.
Series [8] can be described thus: Kinetic solubility in 1%DMSO solution. The class given is physicochemical. The note with it: read-out: Kinetic_solubility.
A short description of series [9]: Apparent permeability from apical to basal side of human Caco2 cells. The class given is ADME, cell-based. As to conditions: Caco-2; call rule not given here.
Series [10] has as its system Liver microsomes. Briefly: Intrinsic clearance in rat liver microsomes assessed per g of liver. The format is ADME, Microsome. (In general: Microsomes from liver hold many membrane-bound enzymes, among them those of drug oxidation.)
A further series deals with Mus musculus. Nature of the series: Antiinflammatory activity in BALB/c mouse assessed as reduction in LPS-induced neutrophil accumulation in bronchoalveolar lung fluid at 0.5 mg, it administered 1 hr prior to LPS-challenge and measured after 8 hrs relative to vehicle treated control. Also noted: scale not given: the % may be the effect or the level left. The format is functional.

The nature of series [11]: Clearance in iv dosed rat. The format is ADME, organism-based. As to conditions: in vivo.
Series [12] has as its system Plasma. Nature of the series: Drug metabolism in iv dosed rat plasma assessed as CZC19945 formation. The format is ADME, organism-based. The note with it: in vivo.
The test system of series [13] is Plasma. Nature of the series: Drug metabolism in iv dosed rat plasma assessed as 2-(3-(6-(5-(N-tert-butylsulfamoyl)pyridin-3-yl)-[1,2,4]triazolo[1,5-a]pyridin-2-yl)ureido)acetic acid formation. The format is ADME, organism-based. As to conditions: in vivo.

Chain of Phosphatidylinositol 4,5-bisphosphate 3-kinase catalytic subunit gamma isoform (P48736 whole entry, canonical isoform): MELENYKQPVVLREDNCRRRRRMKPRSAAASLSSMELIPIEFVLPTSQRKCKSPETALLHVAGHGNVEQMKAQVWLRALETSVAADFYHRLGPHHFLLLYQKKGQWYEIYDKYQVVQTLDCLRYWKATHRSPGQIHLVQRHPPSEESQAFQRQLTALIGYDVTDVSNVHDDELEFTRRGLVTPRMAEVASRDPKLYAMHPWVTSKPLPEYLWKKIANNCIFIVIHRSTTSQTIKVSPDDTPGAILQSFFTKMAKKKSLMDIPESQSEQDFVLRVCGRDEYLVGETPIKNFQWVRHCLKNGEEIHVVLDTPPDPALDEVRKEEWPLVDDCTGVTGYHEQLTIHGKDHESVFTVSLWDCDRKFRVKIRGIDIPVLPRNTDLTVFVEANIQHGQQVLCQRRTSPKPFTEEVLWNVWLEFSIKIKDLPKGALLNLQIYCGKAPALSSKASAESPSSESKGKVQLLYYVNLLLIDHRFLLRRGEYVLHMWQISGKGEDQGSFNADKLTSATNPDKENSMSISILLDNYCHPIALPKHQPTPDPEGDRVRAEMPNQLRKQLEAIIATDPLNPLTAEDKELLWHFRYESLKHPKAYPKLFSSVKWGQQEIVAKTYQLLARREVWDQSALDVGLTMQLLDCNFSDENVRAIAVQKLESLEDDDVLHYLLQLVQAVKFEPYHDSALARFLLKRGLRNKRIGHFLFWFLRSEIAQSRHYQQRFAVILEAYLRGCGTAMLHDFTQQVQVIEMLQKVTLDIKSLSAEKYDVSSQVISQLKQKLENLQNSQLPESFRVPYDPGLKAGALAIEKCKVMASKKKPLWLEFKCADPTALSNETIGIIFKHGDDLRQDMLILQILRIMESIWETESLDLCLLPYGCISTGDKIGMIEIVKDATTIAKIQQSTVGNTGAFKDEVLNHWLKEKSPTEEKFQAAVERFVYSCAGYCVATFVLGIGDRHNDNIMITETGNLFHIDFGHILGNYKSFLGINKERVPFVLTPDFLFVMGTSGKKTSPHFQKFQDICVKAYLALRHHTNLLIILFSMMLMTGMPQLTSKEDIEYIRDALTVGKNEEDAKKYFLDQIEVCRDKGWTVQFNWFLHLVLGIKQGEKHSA

As for `CS(=O)(=O)c1cncc(-c2ccc3nc(N)nn3c2)c1`, the IC50 is 6310 nM in series [1], 2510 nM in [2], 10000 nM in series [3] and 100 nM in [4].

As for `CN(C)C(=O)CNC(=O)Nc1nc2ccc(-c3cncc(S(=O)(=O)NC(C)(C)C)c3)cn2n1`, the CLint was determined as 0.5 mL/min/g in the series with Liver microsomes [5] and 0.9 mL/min/g in the series on Liver microsomes [10]. Also, in [6], the efflux ratio is 109. The IC50 in [7] is 794 nM; in series [1] it was 79.4 nM; in series [2], 1260 nM; in [3] it was 12600 nM; in series [4], 3.16 nM. Moreover, the solubility kinetic in series [8] was under 6.5 µM. Moreover, the Papp A→B in [9] amounted to 0.54 ×10⁻⁶ cm/s.

Regarding `CNC(=O)CNC(=O)Nc1nc2ccc(-c3cncc(S(=O)(=O)NC(C)(C)C)c3)cn2n1`, the IC50 in series [7] was 20000 nM; in [1], 794 nM; in [2], over 2000 nM; in series [3] it was over 15800 nM; in [4], 15.8 nM.

As to `CC(C)(C)NS(=O)(=O)c1cncc(-c2ccc3nc(NC(=O)NCCn4nnc(C5CC5)n4)nn3c2)c1`, the CLint in the series on Liver microsomes [5] is 0 mL/min/g; in the series on Liver microsomes [10], 0.4 mL/min/g. In addition, the efflux ratio in series [6] was determined as 252. In addition, in the series with Mus musculus, the Activity was 37%. The IC50 in series [7] is 79.4 nM; in series [1], 6.31 nM; in series [2], 63.1 nM; in series [3] it was 794 nM; in series [4], 2.51 nM. Besides, the solubility kinetic in series [8] is over 100 µM. Further, the Papp A→B in series [9] stood at 0.08 ×10⁻⁶ cm/s.

With `CC(C)(C)NS(=O)(=O)c1cncc(-c2ccc3nc(NC(=O)NCCn4cccn4)nn3c2)c1`, the IC50 in [7] was 158 nM; in [1], 200 nM; in [2], 631 nM; in series [3], 631 nM; in [4], 25.1 nM.

`Cc1noc(C)c1CCNC(=O)Nc1nc2ccc(-c3cncc(S(=O)(=O)NC(C)(C)C)c3)cn2n1`: the IC50 in [7] is 251 nM; in series [1], 12.6 nM; in [2], 79.4 nM; in series [3] it was 2000 nM; in [4], 25.1 nM.

In the case of `CC(C)(C)NS(=O)(=O)c1cncc(-c2ccc3nc(NC(=O)NCC(=O)N4CCCC4)nn3c2)c1`, the IC50 in [7] was 1580 nM; in [1], 63.1 nM; in [2], 1260 nM; in [3], 1000 nM; in [4] it was 6.31 nM.

Take `CC(C)(C)NS(=O)(=O)c1cncc(-c2ccc3nc(NC(=O)NCCc4nnc(C5CC5)o4)nn3c2)c1`: the IC50 is 316 nM in [7]; 79.4 nM in [1]; 251 nM in [2]; 3160 nM in series [3]; 10 nM in series [4].

`CC(C)(C)NS(=O)(=O)c1cncc(-c2ccc3nc(NC(=O)N4CCOCC4)nn3c2)c1`: the IC50 in series [7] was 7940 nM; in series [1], 3160 nM; in [2], 3980 nM; in series [3], over 25100 nM; in series [4], 126 nM.

As for `Cc1nc(CCNC(=O)Nc2nc3ccc(-c4cncc(S(=O)(=O)NC(C)(C)C)c4)cn3n2)cs1`, the IC50 in series [7] is 398 nM; in [1], 15.8 nM; in series [2] it was over 200 nM; in series [3], 794 nM; in series [4], 7.94 nM.

As to `CN1CCN(C(=O)CNC(=O)Nc2nc3ccc(-c4cncc(S(=O)(=O)NC(C)(C)C)c4)cn3n2)CC1`, the IC50 in series [7] was 1260 nM; in series [1] it was 12.6 nM; in series [2] it was 1000 nM; in [3] it was 794 nM; in series [4], 2.51 nM.

In the case of `CC(C)(C)NS(=O)(=O)c1cncc(-c2ccc3nc(NC(=O)NCCc4ccccc4)nn3c2)c1`, the IC50 in [7] is 398 nM; in series [1] it was 25.1 nM; in [2], 1000 nM; in [3], over 3160 nM; in series [4], 31.6 nM.

As for `CNC(=O)Nc1nc2ccc(-c3cncc(S(=O)(=O)NC(C)(C)C)c3)cn2n1`, the IC50 was 794 nM in series [7]; 794 nM in series [1]; 398 nM in series [2]; over 5010 nM in [3]; 12.6 nM in series [4].

Regarding `CC(C)(C)NS(=O)(=O)c1cncc(-c2ccc3nc(NC(=O)NCCCn4nnc(C5CC5)n4)nn3c2)c1`, the IC50 in [7] was 251 nM; in series [1], 50.1 nM; in series [2], 2510 nM; in [3] it was over 6310 nM; in [4], 63.1 nM.

Take `CC(C)(C)NS(=O)(=O)c1cncc(-c2ccc3nc(NC(=O)NCc4ccccc4)nn3c2)c1`: the IC50 in series [7] was 1580 nM; in series [1], 1580 nM; in [2] it was 3160 nM; in [3], over 20000 nM; in [4], 63.1 nM.

Take `CC(C)(C)NS(=O)(=O)c1cncc(-c2ccc3nc(NC(=O)NCCc4cnccn4)nn3c2)c1`: the IC50 in series [7] is 126 nM; in [1], 25.1 nM; in series [2] it was 126 nM; in series [3], 1260 nM; in series [4], 6.31 nM.

Take `CC(C)(C)NS(=O)(=O)c1cncc(-c2ccc3nc(NC(=O)Nc4ccccc4)nn3c2)c1`: the IC50 was over 25100 nM in series [1], over 100000 nM in series [2], over 100000 nM in series [3] and 251 nM in series [4].

As for `CC(C)(C)NS(=O)(=O)c1cncc(-c2ccc3nc(NC(=O)NCCN4CCOCC4)nn3c2)c1`, the figures for the CLint in the series with Liver microsomes [5] and in the series on Liver microsomes [10] were 1.4 mL/min/g and 0.9 mL/min/g, respectively. Moreover, the IC50 in series [7] is 50.1 nM; in series [1], 20 nM; in series [2], over 200 nM; in series [3], 1260 nM; in series [4] it was 15.8 nM. For the same molecule, the solubility kinetic in [8] worked out at 65 µM (≈ 32.7 µg/mL).

Regarding `CC(C)(C)NS(=O)(=O)c1cncc(-c2ccc3nc(NC(=O)NCC(=O)N4CCOCC4)nn3c2)c1`, the results for the CLint with Liver microsomes [5] and in the series on Liver microsomes [10] were 0 mL/min/g and 0.8 mL/min/g, respectively. Also, in series [11], the clearance was over 200 mL/min/kg. The Activity in the series with Mus musculus came out at 34%. Further, the IC50 in series [7] was 501 nM; in [1] it was 15.8 nM; in [2] it was 398 nM; in series [3] it was 398 nM; in series [4], 3.98 nM. Besides, the Drug metabolism result in the series with Plasma [12] and in the series with Plasma [13] was “Not Active” in each case. Moreover, in series [8], the solubility kinetic is over 100 µM.

For `CN(C)CCNC(=O)Nc1nc2ccc(-c3cncc(S(=O)(=O)NC(C)(C)C)c3)cn2n1`, the IC50 is 12600 nM in [7]; 1260 nM in [1]; over 1000 nM in series [2]; over 5010 nM in series [3]; 126 nM in [4].

Regarding `CC(C)(C)NS(=O)(=O)c1cncc(-c2ccc3nc(N)nn3c2)c1`, the IC50 was 1000 nM in series [7]; 1580 nM in series [1]; 200 nM in series [2]; 2510 nM in series [3]; 25.1 nM in series [4].
